Measurements reported in publication PMC6538996, “Evaluating the In Vivo Specificity of [^18F]UCB-H for the SV2A Protein, Compared with SV2B and SV2C in Rats Using microPET” (Molecules, 2019).

What was measured:
human SV2A = molecular target: T1, human SV2A (Homo sapiens, UniProt Q7L0J3); assay: In vitro radioligand binding assay, hSV2A (HEK293 membranes, 3H-UCB30889); details: 37 °C, mean n = 3 to 10, read-out: pIC50 SV2A (converted)
T1 construct: expressed in transfected cells; crude membranes
T1 sequence (Q7L0J3 whole entry): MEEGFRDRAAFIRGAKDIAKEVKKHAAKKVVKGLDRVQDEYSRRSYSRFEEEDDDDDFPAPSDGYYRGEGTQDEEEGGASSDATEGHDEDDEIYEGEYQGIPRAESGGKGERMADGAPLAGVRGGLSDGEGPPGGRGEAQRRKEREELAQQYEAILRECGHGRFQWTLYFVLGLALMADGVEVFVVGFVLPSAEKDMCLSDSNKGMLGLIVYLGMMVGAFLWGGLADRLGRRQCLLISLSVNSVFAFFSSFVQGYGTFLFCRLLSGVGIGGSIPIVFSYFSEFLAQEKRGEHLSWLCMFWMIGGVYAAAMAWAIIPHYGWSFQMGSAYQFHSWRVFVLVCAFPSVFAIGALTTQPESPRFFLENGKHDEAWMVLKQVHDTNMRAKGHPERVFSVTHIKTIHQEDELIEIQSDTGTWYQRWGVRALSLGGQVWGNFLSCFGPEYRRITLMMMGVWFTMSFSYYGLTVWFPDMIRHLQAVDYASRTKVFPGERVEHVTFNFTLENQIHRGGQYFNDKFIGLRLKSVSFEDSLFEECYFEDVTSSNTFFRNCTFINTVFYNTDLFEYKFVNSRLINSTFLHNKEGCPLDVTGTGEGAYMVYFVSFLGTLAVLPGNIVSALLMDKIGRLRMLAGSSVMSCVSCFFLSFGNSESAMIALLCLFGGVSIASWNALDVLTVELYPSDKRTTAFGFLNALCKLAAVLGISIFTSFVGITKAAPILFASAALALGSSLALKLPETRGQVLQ
Method: Reagents and reference compounds used were of analytical grade and obtained from various commercial sources. All cell culture reagents were obtained from Invitrogen (Merelbeke, Belgium). […] Test and reference compounds were dissolved in 100% DMSO or H2O to give 1 or 10 mM stock solution. The final DMSO concentration in assays was 0.1% unless otherwise stated. Cell lines generated at UCB Biopharma were human embryonic kidney (HEK) 293 cells expressing human SV2A, SV2B or SV2C proteins. Cells were cultured in Dulbecco’s Modified Eagle medium. The culture medium was supplemented with foetal bovine serum (FBS, 10%), 2 mM L-glutamine, 50 to 100 U/mL penicillin, 50 to 100 µg/mL streptomycin, and 200 µg/mL hygromycin B. Cells were grown at 37 °C with 95% air. Confluent cells were detached by 10 min incubation at 37 °C in phosphate buffered saline (PBS) containing 0.02% EDTA. Culture flasks were washed with 15 mL of ice-cold PBS. The cell suspension was centrifuged at 1500× g for 10 min at 4 °C. The pellet was homogenized in 15 mM Tris-HCl buffer (pH 7.5) containing 2 mM MgCl2, 0.3 mM EDTA, and 1 mM EGTA (buffer A) using a glass/teflon homogenizer. The crude homogenate was subjected to a freeze and thaw cycle in liquid nitrogen and DNAse (1 µL/mL) was then added. […] The radioactivity trapped on the filters was counted by liquid scintillation in a β-counter. […]

[1] = molecular target: T2, [^18F]UCB-H binding in rat brain (Rattus norvegicus, UniProt Q02563); assay: microPET blocking assay of [18F]UCB-H (Vt, Logan plot, PBIF) after pre-treatment with competitors; format: in vivo, Sprague Dawley rats; details: mean ± SEM, n = 5, SV2AL 10 mg/kg, SV2BL and SV2CL 3 mg/kg i.p.
T2 construct: from tissue; host or cells: brain of living Sprague Dawley rats (microPET)
T2 sequence (Q02563 whole entry): as the sequence (Q7L0J3 whole entry) above, with D53E, S62A, T71A, E144D, A154T, G440S, S482A, I572V, M634L counted along it
Method: The competitors were prepared daily in a vehicle composed of distilled water containing 1% methyl cellulose (viscosity: 15 cP, Sigma-Aldrich, Overijse, Belgium) and 5% dimethyl sulphoxide (DMSO, Sigma-Aldrich, Belgium). The concentrations differed depending on the product specifications and their respective pharmacokinetics, provided by UCB Pharma s.a. The dosing used was 10 mg/kg for SV2AL, 3 mg/kg for SV2BL, and 3 mg/kg for SV2CL. All solutions were administered through the intraperitoneal (i.p.) route in a total volume of 1 mL per kg of body weight. The animals used as a control group (vehicle) received an equal volume of vehicle through the same route of administration.
The animals (n = 5 per group) were anesthetized using 4% isoflurane in air at a flow rate of 1 L/min during induction and 1.5% to 2% isoflurane in air at 0.6 L/min during maintenance. Respiration rate and rectal temperature were continuously measured using a physiological monitoring system (Minerve, France). The temperature was maintained at 37 ± 0.5 °C using an air warming system. […]
PMOD software (Version 3.6, PMOD Technologies, Zurich, Switzerland) was used to process the imaging data. […] Finally, the inverse normalization parameters were calculated and applied to the PMOD rat brain atlas to bring it in the individual PET space. […]

SV2A = details: cited from earlier work

IC50 (human SV2A)	mean Vt of [18F]UCB-H in the whole brain of the pre-treated group [1]	SMILES	pIC50 (affinity measured in vitro) (SV2A)
6.31 µM	6.0 ± 0.3	CC[C@@H](C(N)=O)N1CCCC1=O [SV2AL, levetiracetam]	–
–	–	[11CH3]n1cncc1CN1C[C@@H](c2cc(F)cc(F)c2)CC1=O [[^11C]UCB-A]	7.9
